Reference: US12479847B2 (DANA-FARBER CANCER INSTITUTE, INC., priority 2019, dated 2025)
Where two headings read alike, the source gives them in different places.

What was measured:
panel of 468 kinases [1] = target: T1, panel of 468 kinases (Homo sapiens, UniProt Q6ZN16); assay: KINOMEscan (ScanMAX) kinase profiling; assay type: binding; settings: MAP3K15; 1 μM; read-out: % control
T1 construct: purchased KINOMEscan (ScanMAX) service
T1 sequence (Q6ZN16 1-1313): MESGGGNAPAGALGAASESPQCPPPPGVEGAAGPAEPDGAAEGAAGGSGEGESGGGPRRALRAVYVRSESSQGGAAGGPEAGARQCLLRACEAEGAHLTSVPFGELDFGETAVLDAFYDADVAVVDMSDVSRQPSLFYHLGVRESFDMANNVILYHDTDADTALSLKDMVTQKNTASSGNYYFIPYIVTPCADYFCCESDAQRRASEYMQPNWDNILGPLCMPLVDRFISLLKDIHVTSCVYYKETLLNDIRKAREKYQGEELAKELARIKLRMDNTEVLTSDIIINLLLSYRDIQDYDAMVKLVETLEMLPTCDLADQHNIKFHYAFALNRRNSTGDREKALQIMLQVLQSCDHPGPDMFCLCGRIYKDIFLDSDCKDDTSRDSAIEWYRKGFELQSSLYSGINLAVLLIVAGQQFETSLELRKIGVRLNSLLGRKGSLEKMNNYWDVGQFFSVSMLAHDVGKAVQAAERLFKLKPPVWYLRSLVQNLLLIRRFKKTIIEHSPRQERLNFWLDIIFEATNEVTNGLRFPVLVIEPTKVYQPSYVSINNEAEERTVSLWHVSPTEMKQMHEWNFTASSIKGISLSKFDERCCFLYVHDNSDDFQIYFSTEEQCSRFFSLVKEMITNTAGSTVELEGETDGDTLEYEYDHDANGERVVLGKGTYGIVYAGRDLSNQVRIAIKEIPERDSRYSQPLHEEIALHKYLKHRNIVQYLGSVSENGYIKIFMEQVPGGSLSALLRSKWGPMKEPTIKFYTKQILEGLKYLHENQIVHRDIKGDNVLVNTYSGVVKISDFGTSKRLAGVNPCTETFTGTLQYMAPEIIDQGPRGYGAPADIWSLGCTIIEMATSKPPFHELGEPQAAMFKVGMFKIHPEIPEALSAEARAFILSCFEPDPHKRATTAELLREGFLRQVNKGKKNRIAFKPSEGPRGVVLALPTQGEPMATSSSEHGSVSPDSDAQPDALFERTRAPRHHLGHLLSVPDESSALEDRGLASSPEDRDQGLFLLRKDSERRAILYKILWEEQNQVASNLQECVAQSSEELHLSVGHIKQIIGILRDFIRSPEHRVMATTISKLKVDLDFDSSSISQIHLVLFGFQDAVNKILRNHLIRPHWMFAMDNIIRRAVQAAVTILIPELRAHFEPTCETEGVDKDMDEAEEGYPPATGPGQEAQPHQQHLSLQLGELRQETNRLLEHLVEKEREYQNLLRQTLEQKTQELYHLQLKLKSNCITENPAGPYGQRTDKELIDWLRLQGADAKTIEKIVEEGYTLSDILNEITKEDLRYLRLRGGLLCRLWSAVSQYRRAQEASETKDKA

panel of 468 kinases [2] = target: T2, panel of 468 kinases (Homo sapiens, UniProt P36888); assay: KINOMEscan (ScanMAX) kinase profiling; assay type: binding; settings: 1 μM, read-out: % control
T2 construct: purchased KINOMEscan (ScanMAX) service
T2 sequence (P36888 27-993): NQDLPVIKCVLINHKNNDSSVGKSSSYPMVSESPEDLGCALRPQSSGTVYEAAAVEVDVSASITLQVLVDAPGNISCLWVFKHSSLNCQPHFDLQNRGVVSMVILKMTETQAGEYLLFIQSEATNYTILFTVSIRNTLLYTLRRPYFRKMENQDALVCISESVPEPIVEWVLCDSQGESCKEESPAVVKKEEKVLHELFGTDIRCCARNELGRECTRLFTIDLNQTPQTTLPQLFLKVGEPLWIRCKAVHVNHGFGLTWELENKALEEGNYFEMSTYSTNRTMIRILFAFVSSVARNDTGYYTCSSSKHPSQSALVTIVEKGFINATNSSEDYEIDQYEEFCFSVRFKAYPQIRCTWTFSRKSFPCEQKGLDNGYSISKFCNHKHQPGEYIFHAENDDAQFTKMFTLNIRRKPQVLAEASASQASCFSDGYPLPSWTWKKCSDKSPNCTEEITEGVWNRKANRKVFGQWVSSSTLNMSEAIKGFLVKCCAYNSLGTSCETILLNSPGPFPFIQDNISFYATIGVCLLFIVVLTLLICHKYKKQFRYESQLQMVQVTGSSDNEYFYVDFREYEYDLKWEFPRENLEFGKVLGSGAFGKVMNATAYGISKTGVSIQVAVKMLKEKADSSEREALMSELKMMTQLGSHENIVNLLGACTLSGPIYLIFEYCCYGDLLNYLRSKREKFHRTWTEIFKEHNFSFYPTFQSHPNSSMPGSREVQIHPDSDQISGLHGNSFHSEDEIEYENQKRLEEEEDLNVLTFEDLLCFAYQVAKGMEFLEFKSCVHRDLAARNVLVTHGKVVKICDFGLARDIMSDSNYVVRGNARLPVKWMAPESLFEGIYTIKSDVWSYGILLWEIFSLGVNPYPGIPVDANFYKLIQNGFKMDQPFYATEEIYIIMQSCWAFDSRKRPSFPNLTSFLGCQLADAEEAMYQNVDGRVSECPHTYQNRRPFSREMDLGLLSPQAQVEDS

SMILES	remaining binding at 1 µM (panel of 468 kinases [1])	remaining binding at 1 µM (panel of 468 kinases [2]; FLT3-autoinhibited)	remaining binding at 1 µM (panel of 468 kinases [2]; FLT3)
CNc1nc(Nc2ccc(S(=O)(=O)N3CCC(N4CCOCC4)CC3)cc2OC)nc2[nH]cc(Cl)c12 [Compound 12, 5-chloro-N2-(2-methoxy-4-((4-morpholinopiperidin-1-yl)sulfonyl)phenyl)-N4-methyl-7H-pyrrolo[2,3-d]pyrimidine-2,4-diamine]	75%	87%	100%
CNc1nc(Nc2ccc(C(=O)N3CCC(N4CCOCC4)CC3)c3c2OCO3)nc2[nH]cc(Cl)c12 [Compound 75, (7-((5-chloro-4-(methylamino)-7H-pyrrolo[2,3-d]pyrimidin-2-yl)amino)benzo[d][1,3]dioxol-4-yl)(4-morpholinopiperidin-1-yl)methanone]	39%	83%	40%
CNc1nc(Nc2ccc(P3(=O)CCN(C4CCOCC4)CC3)cc2OC)nc2[nH]cc(Cl)c12 [Compound 77, 4-(4-((5-chloro-4-(methylamino)-7H-pyrrolo[2,3-d]pyrimidin-2-yl)amino)-3-methoxyphenyl)-1-(tetrahydro-2H-pyran-4-yl)-1,4-azaphosphinane 4-oxide]	46%	94%	86%
